Measurements published in patent publication US8663607B2, “Ferrate(VI)-containing compositions and methods of using ferrate(VI)” (Battelle Memorial Institute, priority 2007, dated 2014).

How the values were obtained:
[1] = Reactivity of ferrate(VI) in nonpolar media; type: physicochemical; settings: such as oils, solvents, waxes
[2] = Stain removal from calcium deficient hydroxyapatite disks (human tooth model), tea stain; settings: disk T: 1 mL of 3% hydrogen peroxide + 0.5 g sodium bicarbonate, applied twice, 5 minutes, water soak 45 minutes
Description: Tea staining Solution: 200 mL of high-purity deionized (HPDI) water was heated to boiling in a 500-mL beaker. The beaker was removed from heat and 4 Lipton™ tea bags were added. The tea bags were allowed to soak for 5 minutes. The tea bags were pressed with a spatμLa upon removal to remove liquid.
Tea staining Procedure: A calcium-deficient hydroxyapatite (HAP) disk (Clarkson Chromatography Products) was placed into a 50-mL centrifuge tube with 10 mL of tea solution. The centrifuge tube was gently shaken by hand for 15 minutes. The tea solution was decanted and replaced with 10 mL of HPDI water and vortexed for 30 seconds. The water was decanted and replaced with 10 additional mL of HPDI water and vortexed for 30 seconds. The disk was removed with forceps and patted dry with a tissue. The disk was allowed to air dry at room temperature for at least one hour.
Oxidation resistant chelating buffer: 0.25M 1-Hydroxyethylidenediphosphonic acid (etridonic acid) (Dequest® 2010, Thermphos) (HEPA) was pH adjusted by microtitration with 10N NaOH. 1.28 g of 1-Hydroxyethylidenediphosphonic acid was to a 25-mL volumetric flask and brought to volume with HPDI water. The solution was transferred to a 50-mL beaker with a stir bar and pH adjusted using 10.04N NaOH, monitored with a calibrated pH meter. Aliquat 336® (Cognis) (also suitable is Aliquat 134®) (N-methyl-tri-(n-octyl)ammonium chloride), (N-methyl TOA) or “HEPA” chelating pH Buffer: 2.5-μL of N-methyl TOA was added to 5 mL of pH 7 HEPA buffer and sonicated for 1 minute. pH 7 Sodium Dodecyl Sulfate (SDS)/HEPA Buffer: 10 mg of SDS was added to 5 mL of pH 7 HEPA buffer and sonicated for 1 minute. pH 8 SDS/HEPA Buffer: 10 mg of SDS was added to 5 mL of pH 8 HEPA buffer and sonicated for 1 minute.
• A. A tea stained disk was placed into the bowl of the bowl of a watch glass and 100 μL of pH 7 HEPA buffer was pipetted onto the disk surface. 3.7 mg of potassium ferrate(VI) was added to the disk surface and mixed gently. […] The disk was rinsed at 10 minutes with HPDI water. […] 1 mL of pH 7 HEPA buffer was added followed by 9 mL of HPDI water. 9.7 mg of potassium ferrate(VI) was added. The tube was gently hand shaken for 10 minutes. The disk was removed and rinsed with HPDI water. […] 10 mg of potassium ferrate(VI) was added to 1 mL of pH 7 HEPA buffer in a 50 mL centrifuge tube. 9 mL HPDI water was added, and the solution was shaken for a few seconds followed by the addition of a tea stained HAP disk. The disk was removed at 10 minutes and rinsed with HPDI water. […] 1.3 mg of potassium ferrate(VI) added and mixed into the solution.

reactivity in nonpolar media [1] | Compound | L* (lightness/darkness) [2] | a* (blue/red) [2] | appearance of disk after treatment [2] | b* (yellow/green) [2] | reflectance of visible light at 450 nm [2] | reflectance of visible light at 750 nm [2] | ΔE (versus tea stain) [2]
unreactive | ferrate(VI) |  |  |  |  |  |  | 
 | OO [hydrogen peroxide, reference compound] | 96.9 | 0.4 | Much of the color was removed | 0.3 | 89.892 | 94.030 | 13.44
